Measurements as given in patent US20220184003A1, “Formulations of Cannabidiol Derivatives and Their Use as Modulators of Cannabinoid Receptor Type 2 (CB2)” (EMERALD HEALTH PHARMACEUTICALS INC, priority 2019, published 2022).

Assay: Log D determination (octanol / phosphate buffer pH 7.4)
Details: octanol / 0.1 M phosphate buffer pH 7.4, pH 7.4
Description: Lipophilicity is a key determinant of the PK behavior of drugs. It can influence distribution into tissues, absorption and the binding characteristics of a drug, as well as being an important factor in determining the solubility of a compound. Log D (distribution co-efficient) is used as a measure of lipophilicity.
The solution was transferred to tubes, centrifuged and the supernatant is drawn off the top, leaving any solid compound in the bottom. This supernatant was then syringe filtered through 0.2 μm filters to produce the initial solution. Three vials were prepared containing values. […] The vials were mixed to equilibrium, then centrifuged to ensure the two phases were fully separated before the octanol was removed and the buffer samples analyzed. For the quantitative analysis, the aqueous solutions were analyzed by LC MS/MS. The amount of VCE-004.8 in each vial was quantified against a 6 points standard curve which was produced by serially diluting the initial solution. Log D was calculated using the equation, shown in FIG. 7, wherein ConcINITlAL is a concentration of compound in the initial aqueous solution, ConcFINAL is a concentration of compound in final aqueous phase, Vaq is a volume of aqueous phase, and Voct is a volume of octanol phase.

C=C(C)[C@@H]1CCC(C)=C[C@H]1c1c(O)cc(CCCCC)cc1O [CBD, cannabidiol]
logD: 5.44
